Measurements reported in patent publication US20150274701A1, “NEW AZIDES, METHOD FOR PRODUCING SAME AND APPLICATIONS THEREOF” (COMMISSARIAT A L'ENERGIE ATOMIQUE ET AUX ENERGIES …, priority 2012, published 2015).

Tests used:
[1] = Azide/alkyne click reaction kinetics in a buffered medium (fluorescent test); settings: for Reaction rate / Ligation yield: aqueous medium at neutral pH, azide, alkyne and Cu 17.5 μM, sodium ascorbate 475 μM (25 eq); for Ligation yield: monitored for 20 minutes
Description: The azide/alkyne coupling reaction kinetics obtained using azides of the present invention and also the kinetics obtained using copper-chelating compounds and azides of the prior art were studied.
The kinetics were done under concentration conditions conventional in bioconjugation, i.e. in an aqueous medium at neutral pH and under conditions of low concentration of reagents: azide, alkyne and Cu 17.5 μM, sodium ascorbate 475 μM (25 eq).
The reactivity of the azides of the invention with respect to the azide/alkyne “click” reaction was evaluated by means of a fluorescent test (scheme 1) which makes it possible to establish the kinetic parameters of the reaction and to compare them with the solutions from the literature. This test uses a pro-fluorescent alkyne C1 which forms a highly fluorescent cycloaddition product C2. The synthesis and the fluorescence properties are described in the literature.
100 μl of a solution containing 35 μM of alkyne C1 and 35 μm of azide RN3 dissolved in a DMF/H2O mixture (50/50) are added to 50 μl of an aqueous solution containing 70 μM of CuSO4. The reaction is then initiated by adding 50 μl of an aqueous solution containing 1.75 mM of ascorbic acid (AS). The cycloaddition reaction is monitored by measuring, every 5 seconds, for 20 minutes, the fluorescence intensity at 400 nm following excitation at 320 nm. The reaction yield is calculated by means of a calibration range previously established with the cyclo-adduct C2.

[2] = Ligation kinetics in a complex medium (cell lysate), fluorescent test; settings: azide and alkyne 17.5 μM, Cu 350 μM, sodium ascorbate 8.75 mM (500 eq)
Description: An experiment was also carried out in a cell culture medium. The process was carried out as follows:
100 μl of a solution containing 35 μM of alkyne C1 and 35 μM of azide RN3 dissolved in cell lysate are added to 50 μl of cell lysate containing 1.4 mM of CuSO4. The reaction is then initiated by adding 50 μl of an aqueous solution containing 1.75 mM of ascorbic acid (AS). The cycloaddition reaction is monitored by measuring, every 5 seconds, for 20 minutes, the fluorescence intensity at 400 nm following excitation at 320 nm. The reaction yield is calculated by means of a calibration range previously established with the cyclo-adduct C2.
Conditions: Azide and alkyne 17.5 μM, Cu 350 μM, sodium ascorbate 8.75 mM (500 eq).

[3] = Click reaction kinetics of chelating azides in cell lysate (fluorescent test); settings: cell lysate of Jurkat (human T-cell leukemia), alkyne and azide 17 μM, copper sulfate 34 μM, sodium ascorbate 850 μM
Description: (§1) The reaction kinetics were determined by means of a fluorescent test illustrated by the reaction below, making it possible to establish the kinetic parameters of the reaction and to compare them with the solutions from the literature. This test uses a pro-fluorescent alkyne which forms a highly fluorescent cycloaddition product.
(§2) The operating conditions are the following: the same concentration of 17 μM was used for the alkyne and for the azide. The copper sulfate concentration was 34 μM and the sodium ascorbate (AS) concentration was 850 μM.
(§3) The process was carried out, on the one hand, in a 0.1M phosphate buffer at pH 7.4 and, on the other hand, in a cell lysate obtained by means of three cycles of sonication of Jurkat ([…]) for 30 seconds. The alkyne, the azide and the copper sulfate are mixed at ambient temperature for 30 minutes and then the kinetics are initiated by adding sodium ascorbate.

[4] = Click reaction kinetics of chelating azides in phosphate buffer (fluorescent test); settings: 0.1M phosphate buffer pH 7.4; alkyne and azide 17 μM, copper sulfate 34 μM, sodium ascorbate 850 μM
Description: as §1, §2, §3

HuH-7 cells = assay: Ligation in living cells, fluorescence microscopy; type: cell-based; settings: HuH-7 cells pre-incubated with 62.5 nM paclitaxel-alkyne 2; 100 μM copper complex of compound 1 for 4 h
Description: HuH-7 cells fixed on 96-well plates, incubated beforehand in the presence of paclitaxel 2 comprising an alkyne function, were treated with the copper complex above.
The cells were treated with 100 μl of a 62.5 nM solution of compound 2 dissolved in 0.1M phosphate buffer, and then incubated at 37° C. for 30 min. The cells are then washed twice by adding 100 μl of 0.1M phosphate buffer and then treated for 4 h with 100 μl of a 100 μM solution of the copper complex of compound 1. The cells are again washed twice by adding 100 μl of 0.1M phosphate buffer and then fixed by treating with 150 μl of a 4% formaldehyde solution. After fixing for 15 min, the cells are washed twice by adding 100 μl of 0.1M phosphate buffer and then incubated with a 62.5 nM solution of Tubulin Tracker® Green 3 for 30 min at 37° C. The cells are again washed with 0.1M phosphate buffer and then observed by fluorescence microscopy.
After cell washing steps, the fluorescence of the rhodamine part of the copper complex of compound 1 was measured. […] Compound 3, a covalent conjugate between the paclitaxel and the Oregon Green® fluorophore, was used as a control.
FIG. 8A illustrates the localization of the cell nucleus by the 4′,6′-diamidino-2-phenylindole reagent.

Row | Molecule | Reaction rate [1] [µM/min] | Ligation yield [1] [%] | position of the ligation yield versus time curve in FIG. 5 [2] | click reaction activity (FIG. 7) [3] | click reaction activity (FIG. 6) [4] | further results
1 | [N-]=[N+]=NCc1ccccn1 [Comparative example 2, reference compound] | 4.2 | 28 |  |  |  | 
2 | COc1ccnc(CN=[N+]=[N-])c1 [Comparative example 3, reference compound] | 3.5 | 35 | lower curves |  |  | 
3 | [N-]=[N+]=NCCCN(Cc1cn(Cc2ccccc2)nn1)Cc1cn(Cc2ccccc2)nn1 [Preparation 2, 3-azido-N, N-bis((1-benzyl-1H-1,2,3-triazol-4-yl)methyl)propan-1-amine] | 10.8 | 45 |  |  |  | 
4 | CC(C)(C)n1cc(CN(CCCN=[N+]=[N-])Cc2cn(CCCCC(=O)O)nn2)nn1 [Example 2, 5-(4-(((3-azidopropyl)((1-(tert-butyl)-1H-1,2,3-triazol-4-yl)methyl)amino)methyl)-1H-1,2,3-triazol-1-yl)pentanoic acid] |  |  | upper curve | particularly effective | make it possible to carry out the click reaction with efficiency | click reaction activity (FIG. 7) ([3]; listed as A20): make it possible to carry out the click reaction with efficiency
5 | [N-]=[N+]=NCCCN(Cc1ccccn1)Cc1ccccn1 [Example A14, reference compound] |  |  |  | inactive | inactive | 
6 | Diethyl 5,5′-(4,4′-(((3-azidopropyl)azanediyl)bis(methylene))bis(1H-1,2,3-triazole-4,1-diyl))dipentanoate [Preparation 3] | 16.5 | 67 | middle curve |  |  | ligation yields relative to the best comparable compounds of the prior art ([1]; buffered medium): twice as high
7 | [N-]=[N+]=NCCCN(Cc1cn(CCCCC(=O)O)nn1)Cc1cn(CCCCC(=O)O)nn1 [Example 1, 5,5′-(4,4′-(((3-azidopropyl)azanediyl)bis(methylene))bis(1H-1,2,3-triazole-4,1-diyl))dipentanoic acid] | 12.0 | 74 |  | make it possible to carry out the click reaction with efficiency | make it possible to carry out the click reaction with efficiency | ligation yields relative to the best comparable compounds of the prior art ([1]; buffered medium): twice as high
8 | Cn1c(CN(CCCN=[N+]=[N-])Cc2nc3ccccc3n2C)nc2ccccc21 [Preparation 1, 3-Azido-N,N-bis((1-methyl-1H-benzo[d]imidazol-2-yl)methyl)propan-1-amine] | 101.7 | 65 |  |  |  | click reaction faster than the comparable compounds of the prior art ([1]; buffered medium): approximately 20 times
9 | CN(C)c1ccc2c(-c3cc(C(=O)NCCCN4C(=O)CC(SCC(=O)NCCCNC(=O)CCCn5cc(CN(CCCN=[N+]=[N-])Cc6cn(C(C)(C)C)nn6)nn5)C4=O)ccc3C(=O)[O-])c3ccc(=[N+](C)C)cc-3oc2c1 (centres unmarked) [azide 1, 4-((3-(3((2-((3-(4-(4-(((3-azidopropyl)((1-(tert-butyl)-1H-1,2,3-triazol-4-yl)methyl)amino)methyl)-1H-1,2,3-triazol-1-yl)butanamido)propyl)amino)-2-oxoethyl)thio)-2,5-dioxopyrrolidin-1-yl)propyl)carbamoyl)-2-(6-(dimethylamino)-3-(dimethyliminio)-3H-xanthen-9-yl)benzoate] |  |  |  |  |  | cell penetration and intracellular click coupling to paclitaxel-alkyne 2 bound to tubulin (FIG. 8) (HuH-7 cells): capable of penetrating inside the cells and of coupling
